# Earlier results, collected in patent US8017153B2, “Dietary supplement composition for blood lipid health” (U.S. Nutraceuticals, LLC, priority 2006, dated 2011).
# Conditions: Human studies
substance,measurement,value
[^3H]-octacosanol,total radioactivity excreted in the feces,81-91%
same,total radioactivity found in urine,1.2%
